The results in this text go back to PMC5046073, “Prediction and evaluation of the lipase inhibitory activities of tea polyphenols with 3D-QSAR models” (Scientific Reports, 2016).

The target of the first test is T1, pancreatic lipase (Sus scrofa, UniProt P00591).
T1 construct: gene PNLIP
T1 sequence (P00591 1-450): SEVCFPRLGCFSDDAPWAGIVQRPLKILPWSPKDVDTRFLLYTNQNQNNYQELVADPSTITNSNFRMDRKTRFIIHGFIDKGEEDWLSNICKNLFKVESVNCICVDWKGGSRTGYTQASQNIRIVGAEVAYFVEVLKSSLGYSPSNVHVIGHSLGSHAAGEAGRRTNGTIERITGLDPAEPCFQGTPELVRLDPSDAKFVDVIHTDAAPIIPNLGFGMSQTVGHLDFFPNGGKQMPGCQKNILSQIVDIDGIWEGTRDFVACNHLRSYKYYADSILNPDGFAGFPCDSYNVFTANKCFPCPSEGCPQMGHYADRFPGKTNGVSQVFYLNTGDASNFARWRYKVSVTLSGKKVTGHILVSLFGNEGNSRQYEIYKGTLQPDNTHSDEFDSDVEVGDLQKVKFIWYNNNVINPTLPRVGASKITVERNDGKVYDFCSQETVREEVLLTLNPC
The experiment in a line: biochemical.
Details: not given
Usually IC50 stands for the midpoint of a concentration-inhibition curve. Low values mean greater potency in that assay, high ones weaker potency in that assay. On to `COc1cc(C(=O)O[C@@H]2Cc3c(O)cc(O)cc3O[C@@H]2c2ccc(O)c(O)c2)cc(O)c1O` [compound 9, (−)-epicatechin 3-O-(3′-O-methyl)-gallat], for which the concentration for half-maximal inhibition (IC50) came out at 740 nM.
Still for that read-out and setting: for `Oc1cc(O)c2c(c1)O[C@H](c1cc(O)c(O)c(O)c1)[C@H](O)[C@H]2c1c(O)cc(O)c2c1O[C@H](c1cc(O)c(O)c(O)c1)[C@H](O)C2` [compound 27, prodelphinidin B2] the value was 3240 nM; for `Oc1cc(O)c2c(c1)O[C@H](c1ccc(O)c(O)c1)[C@H](O)[C@H]2c1c(O)cc(O)c2c1O[C@H](c1ccc(O)c(O)c1)[C@H](O)C2` [compound 23, procyanidin B2], 8750 nM; for `Oc1cc(O)c2c(c1)O[C@H](c1ccc(O)c(O)c1)[C@H](O)C2` [compound 3, (−)-epicatechin (EC)], over 30000 nM.
The same measure, in the same setting: then `Oc1cc(O)c2c(c1)O[C@H](c1ccc(O)c(O)c1)[C@@H](O)[C@@H]2c1c(O)cc(O)c2c1O[C@H](c1cc(O)c(O)c(O)c1)[C@H](O)C2` [compound 16, (+)-catechin (4α-8) (−)-epigallocatechin], with 8700 nM; and `O=C(/C=C/c1ccc(O)cc1)O[C@@H]1Cc2c(O)cc(O)cc2O[C@@H]1c1cc(O)c(O)c(O)c1` [compound 10, (−)-epigallocatechin-3-O-p-coumaroate], with 970 nM; and `O=C(O[C@@H]1Cc2c(O)cc(O)cc2O[C@H]1c1cc(O)c(O)c(O)c1)c1cc(O)c(O)c(O)c1` [compound 6, (−)-gallocatechin-3-O-gallate (GCG)], with 570 nM.
Same read-out and setting: for `Oc1cc(O)c2c(c1)O[C@H](c1ccc(O)c(O)c1)[C@@H](O)[C@@H]2c1c(O)cc(O)c2c1O[C@H](c1ccc(O)c(O)c1)[C@@H](O)C2` [compound 24, procyanidin B3] the value was 3280 nM.
Turning to `Oc1cc(O)c2c(c1)O[C@H](c1cc(O)c(O)c(O)c1-c1c([C@H]3Oc4cc(O)cc(O)c4C[C@H]3O)cc(O)c(O)c1O)[C@H](O)C2` [compound 37, theasinensin C], the IC50 amounted to 16400 nM.
The same measure, in the same setting: for `Oc1cc(O)c2c(c1)O[C@H](c1ccc(O)c(O)c1)[C@@H](O)[C@@H]2c1c(O)cc(O)c2c1O[C@H](c1ccc(O)c(O)c1)[C@H](O)C2` [compound 25, procyanidin B4] the value was 17300 nM; for `O=C(O[C@@H]1Cc2c(O)cc(O)cc2O[C@@H]1c1ccc(O)cc1)c1cc(O)c(O)c(O)c1` [compound 15, (−)-epiafzelechin 3-O-gallate], 2810 nM; for `Oc1cc(O)c2c(c1)O[C@H](c1cc(O)c(O)c(O)c1)[C@@H](O)[C@@H]2c1c(O)cc(O)c2c1O[C@H](c1cc(O)c(O)c(O)c1)[C@H](O)C2` [compound 30, prodelphinidin B4], 6850 nM.
Take `O=C(O[C@@H]1Cc2c(O)cc(O)cc2O[C@@H]1c1cc(O)c(O)c(O)c1-c1c([C@H]2Oc3cc(O)cc(O)c3C[C@H]2O)cc(O)c(O)c1O)c1cc(O)c(O)c(O)c1` [compound 36, theasinensin B]: half-maximal inhibition (IC50) was put at 300 nM.

The same test, now with this note: inhibitor.
Regarding `O=C(O[C@@H]1Cc2c(O)cc(O)c([C@H]3c4c(O)cc(O)cc4O[C@H](c4cc(O)c(O)c(O)c4)[C@@H]3O)c2O[C@@H]1c1ccc(O)c(O)c1)c1cc(O)c(O)c(O)c1` [compound 12, (−)-epigallocatechin (4β-8)-(−)-epicatechin-3-O-gallate], 1230 nM corresponded to half-maximal inhibition (IC50).
Still for that read-out and setting: then `O=C(O[C@@H]1[C@@H](c2c(O)cc(O)c3c2O[C@H](c2ccc(O)c(O)c2)[C@H](OC(=O)c2cc(O)c(O)c(O)c2)C3)c2c(O)cc(O)cc2O[C@@H]1c1cc(O)c(O)c(O)c1)c1cc(O)c(O)c(O)c1` [compound 14, (−)-epigallocatechin-3-O-gallate-(4β-8)-(−)-epicatechin 3-O-gallate], with 690 nM.
The same measure, in the same setting: then `O=C(O[C@@H]1Cc2c(O)cc(O)c([C@H]3c4c(O)cc(O)cc4O[C@H](c4ccc(O)c(O)c4)[C@@H]3O)c2O[C@@H]1c1cc(O)c(O)c(O)c1)c1cc(O)c(O)c(O)c1` [compound 11, (−)-epicatechin(4β-8)-(−)-epigallocatechin 3-O-gallate], with 160 nM; and `O=C(O[C@@H]1Cc2c(O)cc(O)c([C@@H]3c4c(O)cc(O)cc4O[C@H](c4ccc(O)c(O)c4)[C@H]3O)c2O[C@@H]1c1cc(O)c(O)c(O)c1)c1cc(O)c(O)c(O)c1` [compound 17, (+)-catechin (4α-8) (−)-epigallocatechin 3-O-gallate], with 190 nM; and `O=C(O[C@@H]1[C@@H](c2c(O)cc(O)c3c2O[C@H](c2cc(O)c(O)c(O)c2)[C@H](OC(=O)c2cc(O)c(O)c(O)c2)C3)c2c(O)cc(O)cc2O[C@@H]1c1ccc(O)c(O)c1)c1cc(O)c(O)c(O)c1` [compound 13, (−)-epicatechin-3-O-gallate-(4β-8)-(−)-epigallocatechin3-O-gallate], with 930 nM.
With `O=C(OC1Cc2c(O)cc(O)c(C(c3cc(O)c(O)c(O)c3)C(Cc3c(O)cc(O)cc3O)OC(=O)c3cc(O)c(O)c(O)c3)c2OC1c1cc(O)c(O)c(O)c1)c1cc(O)c(O)c(O)c1` (centres unmarked) [compound 1, assamicain A], the IC50 stood at 130 nM.

The target in a further test is T1, pancreatic lipase. The experiment in a line: fluorescent 4-MU oleate hydrolysis assay, type VI-S pancreatic lipase. Type of test: biochemical.
Details: not given
“(−)-epigallocatechin-3-O-gallate [compound 7]”: the IC50 is 390 nM.
`O=C(O[C@@H]1Cc2c(O)cc(O)cc2O[C@@H]1c1cc(O)c(O)c(O)c1-c1c([C@H]2Oc3cc(O)cc(O)c3C[C@H]2OC(=O)c2cc(O)c(O)c(O)c2)cc(O)c(O)c1O)c1cc(O)c(O)c(O)c1` [compound 35, theasinensin A] yielded an IC50 of 150 nM.
Compound `O=C(O[C@@H]1Cc2c(O)cc(O)cc2O[C@@H]1c1cc(O)c(O)c2c(=O)c(O)cc([C@H]3Oc4cc(O)cc(O)c4C[C@H]3O)cc12)c1cc(O)c(O)c(O)c1` [compound 33, theaflavin-3′-O-gallate] had an IC50 of 130 nM.
The same measure, in the same setting: for “(−)-epicatechin-3-O-gallate [compound 4]” the value was 340 nM.
Take `O=C(O[C@@H]1[C@@H](c2c(O)cc(O)c3c2O[C@H](c2cc(O)c(O)c(O)c2)[C@H](OC(=O)c2cc(O)c(O)c(O)c2)C3)c2c(O)cc(O)cc2O[C@@H]1c1cc(O)c(O)c(O)c1)c1cc(O)c(O)c(O)c1` [compound 29, prodelphinidin B2-3,3′-di-O-gallate]: the IC50 amounted to 100 nM.
Same read-out and setting: then `O=C(OC1Cc2c(O)cc(O)c(Cc3c(O)cc(O)c4c3OC(c3cc(O)c(O)c(O)c3)C(OC(=O)c3cc(O)c(O)c(O)c3)C4)c2OC1c1cc(O)c(O)c(O)c1)c1cc(O)c(O)c(O)c1` (centres unmarked) [compound 20, oolonghomobisflavan A], with 110 nM; and `O=C(Oc1cc(O)cc2c1C[C@@H](OC(=O)c1cc(O)c(O)c(O)c1)[C@@H](c1cc(O)c(O)c(O)c1)O2)c1cc(O)c(O)c(O)c1` [compound 8, (−)-epigallocatechin-3,5-di-O-gallate], with 110 nM.
